From article PMC12396409, “Screening and hit evaluation of a microbial metabolite library against the pathogenic Plasmodium falciparum and Toxoplasma gondii parasites” (International Journal for Parasitology: Drugs and Drug …, 2025)
Where two headings read alike, the source gives them in different places.

Key:
[1] = test system: P. falciparum 3D7 parasites; assay: P. falciparum growth inhibition assay, 1-cycle (72 h treatment), SYBR DNA staining (library screen at 2 μg/mL and dose-response); format: cell-based, Plasmodium falciparum; details: for activity at 2 µg/mL: Plasmodium falciparum
[2] = test system: T. gondii RH strain (RH-Tub-eYFP) tachyzoites; assay: microbe, parasite or virus in culture; format: cell-based, Toxoplasma gondii; details: 72 h; for percent parasite growth at 2 µg/mL: Toxoplasma gondii
[3] = test system: P. falciparum 3D7 parasites; assay: P. falciparum growth inhibition assay, 2-cycle (120 h treatment), delayed-death screen and dose-response; format: cell-based, Plasmodium falciparum; details: for activity at 2 µg/mL: Plasmodium falciparum
[4] = P. falciparum, 72 h, parasite screen 2 μg/mL, % growth, replicate 1
[5] = P. falciparum, 72 h, parasite screen 2 μg/mL, % growth, replicate 2
[6] = T. gondii, parasite screen 2 μg/mL, % growth, replicate 1
[7] = T. gondii, parasite screen 2 μg/mL, % growth, replicate 2
[8] = P. falciparum, 120 h, parasite screen 2 μg/mL, % growth, replicate 1
[9] = P. falciparum, 120 h, parasite screen 2 μg/mL, % growth, replicate 2

CCCCCCCCCCCCCCCC(=O)C1=C(O)C(CO)OC1=O (stereo not drawn) [RK-682]
Pf_72h_%Growth_Rep1 [1, 4]: 82.69%
Pf_72h_%Growth_Rep2 [1, 5]: 35.30%
Tg_72h_%Growth_Rep1 [2, 6]: 107.18%
Tg_72h_%Growth_Rep2 [2, 7]: 84.15%
Pf_120h_%Growth_Rep1 [3, 8]: 73.75%
Pf_120h_%Growth_Rep2 [3, 9]: 72.22%

C=C(C)[C@@H]1CC[C@]2(C)CC[C@]3(C)[C@H](CC[C@@H]4[C@@]5(C)CC[C@H](O)C(C)(C)[C@@H]5CC[C@]43C)[C@@H]12 [BIA-L1759]
Pf_72h_%Growth_Rep1 ([1]; P. falciparum 3D7, 72 h, library screen at 2 μg/mL, % growth, replicate 1): 81.82%
Pf_72h_%Growth_Rep2 ([1]; P. falciparum 3D7, 72 h, library screen at 2 μg/mL, % growth, replicate 2): 111.85%
Tg_72h_%Growth_Rep1 ([2]; T. gondii RH, library screen at 2 μg/mL, % growth, replicate 1): 110.92%
Tg_72h_%Growth_Rep2 ([2]; T. gondii RH, library screen at 2 μg/mL, % growth, replicate 2): 91.52%
Pf_120h_%Growth_Rep1 ([3]; P. falciparum 3D7, 120 h, library screen at 2 μg/mL, % growth, replicate 1): 99.08%
Pf_120h_%Growth_Rep2 ([3]; P. falciparum 3D7, 120 h, library screen at 2 μg/mL, % growth, replicate 2): 111.54%

C=C1C(=O)O[C@H]2C(=O)O[C@H](CCCCCCCC)[C@@H]12 [Avenaciolide]
Pf_72h_%Growth_Rep1 ([1]; library screen at 2 μg/mL, 72 h, % growth, replicate 1): 79.34%
Pf_72h_%Growth_Rep2 ([1]; library screen at 2 μg/mL, 72 h, % growth, replicate 2): 78.44%
Tg_72h_%Growth_Rep1 ([2]; library screen at 2 μg/mL, % growth, replicate 1): 102.05%
Tg_72h_%Growth_Rep2 ([2]; library screen at 2 μg/mL, % growth, replicate 2): 95.83%
Pf_120h_%Growth_Rep1 ([3]; library screen at 2 μg/mL, 120 h, % growth, replicate 1): 53.72%
Pf_120h_%Growth_Rep2 ([3]; library screen at 2 μg/mL, 120 h, % growth, replicate 2): 80.39%

COc1c(C[C@@H](C)OC(=O)Oc2ccc(O)cc2)c2c3c(C[C@@H](C)OC(=O)c4ccccc4)c(OC)c(=O)c4c(O)cc(OC)c(c5c(OC)cc(O)c(c1=O)c52)c43 [Calphostin C]
activity at 2 µg/mL ([1]; 3D7, P. falciparum, 72 h, screen at 2 μg/mL, replicate 1, read-out: Pf_72h_%Growth_Rep1): 13.6%
activity at 2 µg/mL ([1]; 3D7, P. falciparum, 72 h, screen at 2 μg/mL, replicate 2, read-out: Pf_72h_%Growth_Rep2): 9.2%
percent parasite growth at 2 µg/mL ([2]; T. gondii, screen at 2 μg/mL, replicate 1, read-out: Tg_72h_%Growth_Rep1): 1%
percent parasite growth at 2 µg/mL ([2]; T. gondii, screen at 2 μg/mL, replicate 2, read-out: Tg_72h_%Growth_Rep2): 2.07%
activity at 2 µg/mL ([3]; 3D7, P. falciparum, 120 h, screen at 2 μg/mL, replicate 1, read-out: Pf_120h_%Growth_Rep1): 17%
activity at 2 µg/mL ([3]; 3D7, P. falciparum, 120 h, screen at 2 μg/mL, replicate 2, read-out: Pf_120h_%Growth_Rep2): 9.44%

CCCCC[C@@]1(OC(=O)CCC(=O)O)CC[C@]2(CC[C@H](C)[C@@H](C/C=C(C)/C=C/[C@H](O)[C@@H](C)/C=C/C(=O)O)O2)O[C@H]1/C=C/C(C)=C/C(=O)O [Reveromycin D]
Pf_72h_%Growth_Rep1 [1, 4]: 62.63%
Pf_72h_%Growth_Rep2 [1, 5]: 21.41%
Tg_72h_%Growth_Rep1 [2, 6]: 109.29%
Tg_72h_%Growth_Rep2 [2, 7]: 94.72%
Pf_120h_%Growth_Rep1 [3, 8]: 51.02%
Pf_120h_%Growth_Rep2 [3, 9]: 15.46%

Oc1cc(O)cc(O)c1 [BIA-P1379]
Pf_72h_%Growth_Rep1 ([1]; P. falciparum 3D7, 72 h, parasite screen at 2 μg/mL, % growth, replicate 1): 72.55%
Pf_72h_%Growth_Rep2 ([1]; P. falciparum 3D7, 72 h, parasite screen at 2 μg/mL, % growth, replicate 2): 29.88%
Tg_72h_%Growth_Rep1 ([2]; T. gondii, parasite screen at 2 μg/mL, % growth, replicate 1): 123.57%
Tg_72h_%Growth_Rep2 ([2]; T. gondii, parasite screen at 2 μg/mL, % growth, replicate 2): 91.75%
Pf_120h_%Growth_Rep1 ([3]; P. falciparum 3D7, 120 h, parasite screen at 2 μg/mL, % growth, replicate 1): 15.44%
Pf_120h_%Growth_Rep2 ([3]; P. falciparum 3D7, 120 h, parasite screen at 2 μg/mL, % growth, replicate 2): 11.00%

CC[C@H]1OC(=O)[C@H](C)[C@@H](O[C@H]2C[C@@](C)(OC)[C@@H](O)[C@H](C)O2)[C@H](C)[C@@H](O[C@@H]2O[C@H](C)C[C@H](N(C)C)[C@H]2O)[C@](C)(O)C[C@@H](C)[C@@H]2N[C@@H](COCCOC)O[C@H]([C@H]2C)[C@]1(C)O [Dirithromycin]
activity at 2 µg/mL ([1]; 3D7, 72 h, library screen at 2 μg/mL, 72 h, % growth, replicate 1, read-out: Pf_72h_%Growth_Rep1): 80.4%
activity at 2 µg/mL ([1]; 3D7, 72 h, library screen at 2 μg/mL, 72 h, % growth, replicate 2, read-out: Pf_72h_%Growth_Rep2): 73.2%
percent parasite growth at 2 µg/mL ([2]; library screen at 2 μg/mL, % growth, replicate 1, read-out: Tg_72h_%Growth_Rep1): 67.5%
percent parasite growth at 2 µg/mL ([2]; library screen at 2 μg/mL, % growth, replicate 2, read-out: Tg_72h_%Growth_Rep2): 74.8%
activity at 2 µg/mL ([3]; 3D7, 120 h, library screen at 2 μg/mL, 120 h, % growth, replicate 1, read-out: Pf_120h_%Growth_Rep1): 62.1%
activity at 2 µg/mL ([3]; 3D7, 120 h, library screen at 2 μg/mL, 120 h, % growth, replicate 2, read-out: Pf_120h_%Growth_Rep2): 48.4%

COc1c(O)cc2cc(C)oc(=O)c2c1O [Reticulol]
Pf_72h_%Growth_Rep1 [1, 4]: 1.99%
Pf_72h_%Growth_Rep2 [1, 5]: 0.81%
Tg_72h_%Growth_Rep1 [2, 6]: 97.11%
Tg_72h_%Growth_Rep2 [2, 7]: 97.69%
Pf_120h_%Growth_Rep1 [3, 8]: -0.78%
Pf_120h_%Growth_Rep2 [3, 9]: 4.83%
